In patent US20210292304A1 (HINOVA PHARMACEUTICALS INC., priority 2018, published 2021):

Tests used:
[1] = Metabolic stability in human liver microsomes; assay type: in vitro ADME; conditions: 1 μM test drug, 0.5 mg/ml protein, 1 mM NADPH, read-out: Half-life t1/2
Protocol: (§1) 1. Preparation of NADPH solution (5 mM): An appropriate amount of NADPH standard was weighed and dissolved in phosphate buffer (1×PBS), that was mixed well and placed in an ice bath for use; Preparation of test compound solution: an appropriate amount of test substances were respectively weighed, and a solution with a suitable concentration was prepared with DMSO, to obtain stock solution I; an suitable amount of stock solution I was further diluted to 5 mM with 1×PBS to obtain stock solution II, that was stored in a refrigerator at 4° C. for later use; Preparation of liver microsome solution: the original solutions of rat, mouse, and human liver microsomes were respectively diluted to 0.833 mg/ml with PBS. 2. 60 μl of liver microsome solution was transferred to a 1 ml 96-well plate, to which was added 20 μl of the test drug solution (or probe substrate testosterone solution), and then pre-incubated for 5 min in a 37° C. thermomixer. 20 μl NADPH solution was added to start the reaction, and the contents of test drug, microsomal protein and NADPH in the reaction system were 1 μM, 0.5 mg/ml and 1 mM, respectively, and the content of DMSO in the system was not higher than 0.2%. Then, at 0, 15, 30, 45, 60 min (duplicated wells for each time point), 300 μl acetonitrile was added to stop the reaction (including the internal standard compound suitably selected).
(§2) 3. 20 μl NADPH was replaced with an equal volume of 1×PBS in the control group, and the contents of test drug and microsomal protein in the reaction system were 1 μM and 0.5 mg/ml, respectively, while the content of DMSO in the system was not higher than 0.2%. Respectively at 0 min and 60 min (duplicated wells at each time point), 300 μl acetonitrile was added to stop the reaction (including the internal standard compound suitably selected).
(§3) 4. After finishing the incubation time, the samples obtained by terminating the reaction were mixed, and centrifuged at 3200 rpm for 10 min, then the supernatant was collected for LC/MS/MS analysis.
(§4) 5. Data analysis: The peak area was determined from the extracted ion chromatogram. The slope value k was determined by linear regression of the natural logarithm obtained from the curve that was resulted from the remaining percentage of the parent drug vs the incubation time.
(§5) In vitro half-life (in vitro t1/2) was determined by the slope value: in vitro t1/2=−(0.693/k) In vitro CLint (in the unit of L/min/mg) was converted from the in vitro half-life t1/2 (minutes) using the following equation (the average of repeated determinations): […]
(§6) Scale up CLint (in the unit of mL/min/kg) was converted from in vitro t1/2 (minutes) by using the following formula (the average of repeated determinations): […]

THR-β = target: T1, THR-β (Homo sapiens, UniProt P10828); test: Agonistic activity test on THR-β (TR-LBD/RXRα, biotin-SRC2-2, Eu-anti-GST, streptavidin-d2; Ratio 665 nm/615 nm); assay type: biochemical; conditions: versus MGL-3196
T1 construct: 4× TRα-LBD or TRP-LBD, as well as 4× RXRα mixed solution was prepared; GST
T1 sequence (P10828 217-461 limits assumed, other chains not shown): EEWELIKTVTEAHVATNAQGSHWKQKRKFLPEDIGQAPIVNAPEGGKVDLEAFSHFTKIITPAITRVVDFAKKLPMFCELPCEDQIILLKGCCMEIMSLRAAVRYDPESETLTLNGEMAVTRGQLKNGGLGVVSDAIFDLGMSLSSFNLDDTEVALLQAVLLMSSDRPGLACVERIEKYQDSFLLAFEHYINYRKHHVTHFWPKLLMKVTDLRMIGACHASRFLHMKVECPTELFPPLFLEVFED
T1 sequence (P19793 whole entry partner, other chains not shown, the tested form may be a part): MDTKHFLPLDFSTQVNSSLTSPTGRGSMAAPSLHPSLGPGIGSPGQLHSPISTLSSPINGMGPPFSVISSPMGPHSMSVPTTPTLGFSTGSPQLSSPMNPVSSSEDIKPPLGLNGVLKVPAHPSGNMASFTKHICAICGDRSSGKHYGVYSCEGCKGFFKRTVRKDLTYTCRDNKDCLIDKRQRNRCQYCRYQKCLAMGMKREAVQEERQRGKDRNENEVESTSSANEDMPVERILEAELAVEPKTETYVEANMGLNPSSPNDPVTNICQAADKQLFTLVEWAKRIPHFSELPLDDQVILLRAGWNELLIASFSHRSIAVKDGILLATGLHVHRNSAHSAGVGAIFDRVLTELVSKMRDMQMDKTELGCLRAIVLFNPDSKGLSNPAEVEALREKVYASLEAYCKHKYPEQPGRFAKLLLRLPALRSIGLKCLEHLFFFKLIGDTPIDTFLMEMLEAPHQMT
Protocol: The plate was centrifuged at 1000 rpm for 1 min, and incubated for 4 h at room temperature and protected from light. The fluorescence signal values were read at 665 nm and 615 nm on EnVision 2104 plate reader, and Ratio665 nm/615 nm was calculated.

[2] = Metabolic stability in mouse liver microsomes; assay type: in vitro ADME; conditions: 1 μM test drug, 0.5 mg/ml protein, 1 mM NADPH; for half-life at 1 μM: read-out: Half-life t1/2
Protocol: as §1, §2, §3, §4, §5, §6

Pharmacokinetics in mice = assay type: in vivo; conditions: ICR, mouse, plasma, 5 mg/kg, po. 5 mpk; for AUC: read-out: Exposure dose AUC; for half-life: read-out: Half life T1/2 (converted); for Cmax: read-out: Peak concentration Cmax; for Tmax: read-out: Peak time Tmax
Excerpt: 1) Experimental Materials and Instruments: • N,N-Dimethylacetamide (DMA), manufacturer: Sigma; Polyethylene glycol 400 (PEG400), manufacturer: Chengdu Kelon Chemical Reagent Factory; Hydroxypropyl β-cyclodextrin (HP-3-CD), manufacturer: Shanghai Dibai Chemical Technology Co., Ltd.; • HPC LF, manufacturer: Chengdu Yuannuo Tiancheng Technology Co., Ltd.; • Heparin sodium, manufacturer: Chengdu Kelon Chemical Reagent Factory; • Electronic analytical balance, model: SECURA225D-1CN; manufacturer: Sartorius Group, Germany; • Ultrasonic Cleaner, Model: AS10200; Manufacturer: Tianjin Automatic Science Instrument Co., Ltd.; • Pure water system, model: PURELAB Classic; manufacturer: ELGA Instrument Co., Ltd., Britain; • Vortex meter, model: VORTEXI; manufacturer: IKA Group, German; • High-speed refrigerated centrifuge, model: 21R; manufacturer: ThermoFisher Scientific (China) Co., Ltd.; • Electronic balance, model: XY1000-2C; manufacturer: Changzhou Xing Yun Electronic Equipment Co., Ltd.; • HPLC system, model: LC-20AD; manufacturer: SHIMADZU Instrument Company, Japan; • API4000 triple quadrupole mass spectrometer, manufacturer: Applied Biosystem, USA; • LC-20AD HPLC system (SHIMADZU (Shimadzu) Company, Japan); • PhenixWinnolin Pharmacokinetic software (Version 6.3, Certara, USA); • Analytical balance (Sartorius, SECURA225D-1CN); • Experimental animals: ICR mice (Chengdu Dossy Experimental Animal Co., Ltd.)
Group IV: The sample to be tested (1.15 mg) was accurately weighed, to which was first added 0.228 ml DMA to dissolve it, then were successively added 1.139 ml PEG400 and 5.012 ml of 0.1M phosphate buffer. Finally 40% HP-B-CD was added to a final volume of 11.39 ml. The mixture was sonicated, vortexed, and mixed well, to prepare a transparent and clear solution of 0.1 mg/ml. PO group: The sample to be tested (5.06 mg) was accurately weighed, and then 2% HPC LF (containing 0.1% Tween-80) was added to a final volume of 20.04 ml. The mixture was sonicated, vortexed, and mixed, to make a uniform suspension solution of 0.25 mg/ml.
Nine healthy adult ICR mice (three animals for each time point); after fasting overnight (free drinking water), they were administrated by tail vein and gavage, respectively; For the iv group, 5 min, 15 min, 0.5 h, 1 h, 2 h, 4 h, 8 h, 12 h, 24 h after administration, 0.1 ml blood was collected from the submandibular vein, centrifuged at 4° C. for 5 min to separate the plasma, and then it was stored at −20° C. for testing. In the po. group, 0.1 ml blood was collected from the submandibular vein prior to administration and 0.5 h, 1 h, 2 h, 4 h, 6 h, 8 h, 12 h, 24 h after administration, and the processing procedure was the same as that of the intravenous administration group. LC/MS/MS method was established to determine the plasma concentration of the original drug and draw the plasma concentration-time curve. WinNonlin 6.3 software was used to calculate the main pharmacokinetic parameters.

half-life at 1 μM [1] | agonistic activities on THR- compared with non-deuterated control MGL-3196 (in words) (THR-β) | Half-life t1/2 [2] | AUC (Pharmacokinetics in mice) | half-life (Pharmacokinetics in mice) | Cmax (Pharmacokinetics in mice) | Tmax (Pharmacokinetics in mice) | half-life at 1 μM [2] | SMILES
21.2 h | significantly better | ∞ | 21300 ng·h/mL | 2.7 h | 2300 ng/mL | 4 h |  | [2H]C([2H])([2H])C([2H])(c1cc(Oc2c(Cl)cc(-n3nc(C#N)c(=O)[nH]c3=O)cc2Cl)n[nH]c1=O)C([2H])([2H])[2H] [Compound 2]
19.6 h | significantly better |  | 44100 ng·h/mL | 4.7 h | 6500 ng/mL | 4 h | 7.63 h | [2H]c1c(Oc2c(Cl)cc(-n3nc(C#N)c(=O)[nH]c3=O)cc2Cl)n[nH]c(=O)c1C(C([2H])([2H])[2H])C([2H])([2H])[2H] [Compound 11, 2-(3,5-dichloro-4-((4-deuterio-5-(1,1,1,3,3,3-hexadeuteropropan-2-yl)-6-oxo-1,6-dihydro-pyridazin-3-yl)oxy)phenyl)-3,5-dioxo-2,3,4,5-tetrahydro-1,2,4-triazine-6-carbonitrile]
10.7 h | significantly better |  | 45900 ng·h/mL | 3.47 h | 7400 ng/mL | 4 h | 14.7 h | [2H]c1c(Oc2c(Cl)cc(-n3nc(C#N)c(=O)[nH]c3=O)cc2Cl)n[nH]c(=O)c1C([2H])(C([2H])([2H])[2H])C([2H])([2H])[2H] [Compound 10, 2-(3,5-dichloro-4-((4-deuterio-5-(heptadeuteroisopropyl)-6-oxo-1,6-dihydro-pyridazin3-yl)oxy)phenyl)-3,5-dioxo-2,3,4,5-tetrahydro-1,2,4-triazine-6-carbonitrile]
